Test results taken from patent US7157256B2, “Method for producing para-hydroxystyrene and other multifunctional aromatic compounds using two-phase extractive fermentation” (E. I. du Pont de Nemours and Company, priority 2003, dated 2007).

Assay: Partition of pHS between 2-undecanone and aqueous medium, 10 L fermentor
Assay type: physicochemical
Details: 2-undecanone/aqueous
Experimental: The pre-seed culture was E. coli strain WWQ51.1, as described in Example 3, frozen in glycerol. This culture was used to inoculate 500 mL of the seed medium consisting of KH2PO4 (0.15 g/L), Na2HPO4 (0.35 g/L), (NH4)2SO4 (3 g/L), MgSO4.7H2O (0.3 g/L), yeast extract (0.5 g/L), and MOPS (15.7 g/L). The medium was adjusted to pH 6.8 and steam sterilized. Then, glucose (10 g/L), kanamycin (50 mg/L) and ampicillin (100 mg/L) were aseptically added to give the final concentration given in parentheses. The seed culture was inoculated and grown in a 2 L flask incubated at 35° C. and 300 rpm for 12 h in an incubator shaker.
The fermentor medium consisted of: 6.2 L of H2O, 1.4 g KH2PO4, 3.5 g MgSO4.7H2O, 7 g (NH4)2SO4, 7 mL of Mazu DF204 Defoamer, obtained from BASF Corp. (Mt. Olive, N.J.), 7 mg thiamine, and 3 L of 2-undecanone, obtained from Bedoukian Research, Inc. (Danbury, Conn.). After sterilization of the medium, 250 g of a 50% w/v glucose solution and 140 mL of the trace element solution (as described in Example 1), were aseptically added. The pH of the medium was adjusted to 6.5. The final total volume of the fermentation medium was 10 L.
The seed culture was used to inoculate the fermentor medium in a 14 L Braun Fermentor, Biostat C. B. (Braun Biotech International, Melesungen, Germany). The fermentation conditions were as follows: temperature: 35° C., stir rate: 400–600 rpm, airflow: 2–16 SLPM, DO2: 25%, and pressure: 1 bar. Glucose was fed into the fermentor starting at a rate of 0.28 g/min. This rate was reduced when the glucose concentration rose above 2 g/L. IPTG (8 mL of a 0.5 M solution) was added when the glucose concentration fell below 4 g/L.
Samples of the aqueous and organic phases were collected at various times. The glucose, pHCA, CA, phenylalanine, tyrosine, and pHS concentrations, and the OD550 in the aqueous phase were determined, as described supra. The pHS concentration in the organic phase was measured using HPLC, as described supra.

Question: What does the source list for `C=Cc1ccc(O)cc1` [pHS, para-hydroxystyrene]?
Answer: Partition coeff. (13.5 h): 19; Partition coeff. (15.9 h): 14; Partition coeff. (18.3 h): 19; Partition coeff. (20.2 h): 27; Partition coeff. (23.3 h): 33; Partition coeff. (25.5 h): 45; Partition coeff. (27.3 h): 40; Partition coeff. (33.6 h): 19; Partition coeff. (36.8 h): 19; Partition coeff. (39.3 h): 21; Partition coeff. (57.1 h): 17; Partition coeff. (59.4 h): 22; Partition coeff. (63.8 h): 27
